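Following 48 hours of exposure in 96-well plates, responses at five concentrations were used to interpolate endpoints linearly. At the GI50, growth is halved. TGI denotes the concentration required for complete inhibition of growth.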

The values below come from PubChem BioAssay (NCI).

Some test systems named below: M14 melanoma; SN12C renal; ACHN renal; UACC-62 melanoma; UO-31 renal; HOP-92 NSCLC; MOLT-4 leukemia; SF-295 CNS; DU-145 prostate; NCI/ADR-RES ovarian.
What all share (assay): NCI tumour cell line growth inhibition, 48 h

Turning to `NNC(=O)N/N=C1\CN(c2ccc(Cl)cc2Cl)C(=O)C(=O)C1c1nc2ccccc2o1` (configuration not stated), the TGI in the assay on M14 melanoma, in the assay on SN12C renal, in the assay on ACHN renal, in the assay on UACC-62 melanoma, in the assay on UO-31 renal and with HOP-92 NSCLC was above 100 µM in each case. The same molecule had a TGI in the assay with MOLT-4 leukemia above 100 µM.

As for `COc1ccc(C(=O)O/N=C2/CCCCC2CN(C)C)cc1` (configuration not stated), the TGI in the assay on M14 melanoma, with SN12C renal, with SF-295 CNS, in the assay on ACHN renal, in the assay with UACC-62 melanoma and in the assay with UO-31 renal was above 100 µM in each case. Further, the TGI with HOP-92 NSCLC and in the assay on MOLT-4 leukemia was above 100 µM throughout.

For `CC1CC(C)C(C(O)CC2CC(=O)N(c3ccccc3)C(=O)C2)C(O)C1` (configuration not stated), the TGI in the assay with M14 melanoma, in the assay on SN12C renal, in the assay on SF-295 CNS, with ACHN renal, in the assay on UACC-62 melanoma and with UO-31 renal was above 100 µM in each case. In addition, the TGI in the assay with HOP-92 NSCLC and in the assay on MOLT-4 leukemia was above 100 µM in each case.

On to `O=C(CC1=Nc2nnc(-c3nnc4n3C(=O)C(CC(=O)C3CC3)=N4)n2C1=O)C1CC1`, for which the TGI in the assay with M14 melanoma, in the assay on SN12C renal, in the assay on SF-295 CNS, in the assay on ACHN renal, in the assay on UACC-62 melanoma and in the assay on UO-31 renal was above 100 µM each time. In addition, the TGI in the assay on HOP-92 NSCLC and with MOLT-4 leukemia was above 100 µM in each case.

Take `c1ccc2c3c([nH]c2c1)C1C2CCCCN2C(c2ccncc2)N1CC3` (configuration not stated): the TGI with M14 melanoma was above 100 µM; with SN12C renal it was above 100 µM; in the assay with SF-295 CNS, above 100 µM; in the assay with ACHN renal it was above 100 µM; in the assay on UACC-62 melanoma, above 100 µM; with UO-31 renal, 34.8 µM. In the assay on MOLT-4 leukemia, this molecule had a TGI above 100 µM.

Take `OCC#Cc1ccccc1C#Cc1ccc(C#Cc2ccccc2)cc1`: the GI50 in the assay on M14 melanoma was 17.5 µM; in the assay on SN12C renal it was 19 µM; in the assay on DU-145 prostate, 16.7 µM; in the assay on SF-295 CNS, 37.7 µM; with ACHN renal, 18.9 µM; in the assay on UACC-62 melanoma it was 19.9 µM. The GI50 in the assay with UO-31 renal is 28.6 µM; in the assay with NCI/ADR-RES ovarian, 17.6 µM; in the assay on MOLT-4 leukemia it was 2.65 µM. Further, the TGI with M14 melanoma was 43.9 µM; with SN12C renal, 35.6 µM; in the assay with DU-145 prostate it was 34.4 µM; in the assay on SF-295 CNS, above 100 µM; with ACHN renal, 37 µM; in the assay on UACC-62 melanoma, 36.1 µM. Further, the TGI in the assay on UO-31 renal was above 100 µM; in the assay with NCI/ADR-RES ovarian it was 59.1 µM; in the assay with MOLT-4 leukemia, 43.5 µM.

Regarding `OCC(O)C(O)C(O)C(O)c1nn[nH]n1` (configuration not stated), the TGI in the assay on M14 melanoma, in the assay on SN12C renal, in the assay on SF-295 CNS, in the assay with ACHN renal, with UACC-62 melanoma and with UO-31 renal was above 100 µM each time. For the same molecule, the TGI in the assay on HOP-92 NSCLC and with MOLT-4 leukemia was above 100 µM in each case.

For the molecule `COc1cc(/C=C2\C(=O)N(C)c3ccccc32)cc(OC)c1OC`, the GI50 is 16.8 µM with M14 melanoma; 17 µM in the assay with SN12C renal; 22.1 µM with SF-295 CNS; 14.7 µM in the assay with ACHN renal; 12 µM in the assay with UACC-62 melanoma; 22.7 µM with UO-31 renal. Besides, the figures for the GI50 with HOP-92 NSCLC, in the assay with NCI/ADR-RES ovarian and in the assay on MOLT-4 leukemia were 15.9 µM, 13.7 µM and 12 µM, respectively. For the same molecule, the TGI was 46.9 µM in the assay on M14 melanoma; 69.5 µM with SN12C renal; above 100 µM in the assay with SF-295 CNS; 62.8 µM with ACHN renal; 32.1 µM with UACC-62 melanoma; above 100 µM in the assay with UO-31 renal. The values for the TGI in the assay with HOP-92 NSCLC, in the assay with NCI/ADR-RES ovarian and in the assay on MOLT-4 leukemia were 70.6 µM, 56.7 µM and 74.3 µM, respectively.

For the molecule `Nc1ccc(C(=O)/C=C/c2ccccc2O)cc1`, the TGI in the assay on M14 melanoma, in the assay with SN12C renal, in the assay with SF-295 CNS, in the assay on ACHN renal, with UACC-62 melanoma and in the assay with UO-31 renal was above 100 µM throughout. In the assay on MOLT-4 leukemia, this molecule returned a TGI above 100 µM.

On to `COCC1N=C(c2cc(OC)c(OC)c(OC)c2-c2cc3c(cc2[C@H](C)O)OCO3)O[C@H]1c1ccccc1` (some centres not stated), for which the TGI in the assay with M14 melanoma, in the assay with SN12C renal, in the assay on SF-295 CNS, in the assay with ACHN renal, in the assay on UACC-62 melanoma and with UO-31 renal was above 100 µM each time. Also, the TGI was 86.4 µM with HOP-92 NSCLC and above 100 µM with MOLT-4 leukemia.

With `[Cl-].[Gd+3].[O-]/N=C(\c1ccccc1)c1ccccn1.[O-]/N=C(\c1ccccc1)c1ccccn1.[O-]/N=C(\c1ccccc1)c1ccccn1`, the GI50 in the assay on M14 melanoma is 51.4 µM; in the assay on SN12C renal it was 66.8 µM; with SF-295 CNS, 36.6 µM; in the assay with ACHN renal, 64.3 µM; with UACC-62 melanoma, 40.7 µM; with UO-31 renal it was 35.3 µM. Also, the values for the GI50 with HOP-92 NSCLC and with MOLT-4 leukemia were above 100 µM and 40.5 µM, respectively. The TGI in the assay on M14 melanoma, with SN12C renal, with SF-295 CNS, in the assay on ACHN renal, in the assay with UACC-62 melanoma and in the assay on UO-31 renal was above 100 µM in each case. The TGI with HOP-92 NSCLC and in the assay on MOLT-4 leukemia was above 100 µM throughout.

On to `CCCCCCCCCCCCCCC(C)CCC(=O)O` (configuration not stated), for which the TGI in the assay on SN12C renal, in the assay on SF-295 CNS, with ACHN renal, in the assay with UACC-62 melanoma and in the assay on HOP-92 NSCLC was above 100 µM each time.

For the molecule `CC(=O)[O-].[Mn+3].[O-]c1ccc(Cl)cc1C=NCCN=Cc1cc(Cl)ccc1[O-]`, the GI50 was 71.6 µM in the assay with M14 melanoma; above 100 µM in the assay with SN12C renal; above 100 µM with SF-295 CNS; above 100 µM with ACHN renal; above 100 µM in the assay on UACC-62 melanoma; above 100 µM with UO-31 renal. For the same molecule, in the assay on MOLT-4 leukemia, the GI50 was above 100 µM. The TGI with M14 melanoma, with SN12C renal, with SF-295 CNS, in the assay with ACHN renal, with UACC-62 melanoma and in the assay on UO-31 renal was above 100 µM each time. This molecule had a TGI with MOLT-4 leukemia above 100 µM.
